Experimental data published in patent US8822449B2, “Substituted aminoindanes and analogs thereof, and the pharmaceutical use thereof” (Sanofi, priority 2008, dated 2014).

biological target: T1, sodium-proton exchanger of subtype 3 (NHE3) (Homo sapiens, UniProt P48764); experiment: Recovery of intracellular pH (pHi) after acidification in LAP1 cells stably expressing NHE3 (BCECF fluorescence, FLIPR); format: cell-based; details: Activity range (inhibitory effect on NHE3), LAP1 cells stably expressing NHE3; pH recovery after acidification; range 1 is % inhibition at 10 μM
T1 construct: expressed in transfected cells
T1 sequence (P48764 26-834): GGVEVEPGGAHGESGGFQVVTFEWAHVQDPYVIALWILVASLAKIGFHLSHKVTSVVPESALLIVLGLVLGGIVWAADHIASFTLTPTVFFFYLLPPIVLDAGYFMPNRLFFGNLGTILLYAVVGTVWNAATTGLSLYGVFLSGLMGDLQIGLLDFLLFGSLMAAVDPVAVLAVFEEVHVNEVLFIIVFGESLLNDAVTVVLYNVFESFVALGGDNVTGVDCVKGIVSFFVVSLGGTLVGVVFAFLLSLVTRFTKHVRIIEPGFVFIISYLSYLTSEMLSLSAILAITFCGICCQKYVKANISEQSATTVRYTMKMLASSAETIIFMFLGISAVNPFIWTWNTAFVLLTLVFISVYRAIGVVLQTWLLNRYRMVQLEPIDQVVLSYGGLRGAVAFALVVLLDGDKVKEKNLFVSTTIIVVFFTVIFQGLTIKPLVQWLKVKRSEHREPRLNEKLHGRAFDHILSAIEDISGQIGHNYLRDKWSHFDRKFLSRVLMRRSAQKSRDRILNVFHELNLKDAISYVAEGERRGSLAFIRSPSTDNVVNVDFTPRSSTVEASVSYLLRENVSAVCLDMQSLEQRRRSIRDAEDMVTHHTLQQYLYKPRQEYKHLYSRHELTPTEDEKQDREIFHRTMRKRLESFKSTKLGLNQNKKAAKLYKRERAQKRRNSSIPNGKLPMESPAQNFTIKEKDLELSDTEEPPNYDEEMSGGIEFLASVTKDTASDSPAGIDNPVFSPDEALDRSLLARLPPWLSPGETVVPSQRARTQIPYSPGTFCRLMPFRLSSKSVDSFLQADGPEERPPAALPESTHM

Structure (SMILES) | IC50
Clc1cc(Cl)c2c(c1)[C@H](Oc1ccc(-n3cncn3)cc1)[C@@H](N1C[C@H]3CC[C@@H](C1)N3)C2 [Example 2, 3-[trans-(1S,2S)-4,6-dichloro-1-(4-[1,2,4]triazol-1-ylphenoxy)indan-2-yl]-3,8-diazabicyclo[3.2.1]octane] | 1000 to 10000 nM
CN(C)S(=O)(=O)c1ccc(O[C@@H]2c3ccccc3C[C@H]2N2CCCC2)c(Cl)c1Cl (racemic) [Example 362, 2,3-dichloro-N,N-dimethyl-4-(rac-trans-(1,2)-2-pyrrolidin-1-ylindan-1-yloxy)benzenesulfonamide] | < 1000 nM

same assay, conditions: LAP1 cells stably expressing NHE3; pH recovery after acidification; range 1 is % inhibition at 10 μM; read-out: Activity range (inhibitory effect on NHE3)

Structure (SMILES) | IC50 | inhibition at 10 µM
CS(=O)(=O)c1ccc(O[C@H]2c3cc(Cl)cc(F)c3C[C@@H]2N2CCNCC2)cc1 (racemic) [Example 292, 1-[rac-trans-(1,2)-6-chloro-4-fluoro-1-(4-methanesulfonylphenoxy)indan-2-yl]piperazine] | < 1000 nM | 
CS(=O)(=O)c1ccc(O[C@H]2c3c(Cl)cc(Cl)cc3C[C@@H]2N2CCNCC2)cc1 (racemic) [Example 287, 1-[rac-trans-(1,2)-5,7-dichloro-1-(4-methanesulfonylphenoxy)indan-2-yl]piperazine] | < 1000 nM | 
CN1CCN([C@H]2Cc3c(Cl)cc(Cl)cc3[C@@H]2Oc2ccc(S(C)(=O)=O)cc2)CC1 [Example 306, 1-[trans-(1S,2S)-4,6-dichloro-1-(4-methanesulfonylphenoxy)indan-2-yl]-4-methylpiperazine] | 1000 to 10000 nM | 
N[C@@H]1CCCN([C@H]2CCc3ccccc3[C@@H]2Oc2ccc(F)c3cccnc23)C1 (racemic) [Example 79, (R)-1-[rac-trans-(1,2)-1-(5-fluoroquinolin-8-yloxy)-1,2,3,4-tetrahydronaphthalen-2-yl]piperidin-3-ylamine] | < 1000 nM | 
N[C@@H]1CCCN([C@@H]2Cc3ccccc3[C@H]2Oc2ccc(F)cc2F)C1 (racemic) [Example 33, (R)-1-[rac-trans-(1,2)-1-(2,4-difluorophenoxy)indan-2-yl]piperidin-3-ylamine] | 1000 to 10000 nM | 
CCc1ccc(O[C@@H]2c3ccccc3C[C@H]2N2C[C@H]3CNC[C@H]3C2)c(C(C)(C)C)c1 (racemic) [Example 12, 2-[rac-trans-(1,2)-1-(2-tert-butyl-4-ethylphenoxy)indan-2-yl]octahydropyrrolo[3,4-c]pyrrole] | < 1000 nM | 
COc1cc(Cl)cc(O[C@@H]2c3ccccc3C[C@H]2N2CCC[C@H](N)C2)c1 (racemic) [Example 164, (S)-1-[rac-trans-(1,2)-1-(3-chloro-5-methoxyphenoxy)indan-2-yl]piperidin-3-ylamine] | 1000 to 10000 nM | 
CS(=O)(=O)c1ccc(O[C@H]2c3cc(Cl)cc(Cl)c3C[C@@H]2N2CC[C@H](F)C2)cc1 [Example 196, (S)-1-[trans-(1S,2S)-4,6-dichloro-1-(4-methanesulfonylphenoxy)indan-2-yl]-3-fluoropyrrolidine] | < 1000 nM | 
CS(=O)(=O)c1ccc(O[C@H]2c3cc(Cl)cc(Cl)c3C[C@@H]2N2CCNCC2)cc1 [Example 308, 1-[trans-(1S,2S)-4,6-dichloro-1-(4-methanesulfonylphenoxy)indan-2-yl]piperazine] | < 1000 nM | 
CS(=O)(=O)c1ccc(O[C@H]2c3cc(Cl)cc(Cl)c3C[C@@H]2N2CCCN(CCF)CC2)cc1 [Example 303, 1-[trans-(1S,2S)-4,6-dichloro-1-(4-methanesulfonylphenoxy)indan-2-yl]-4-(2-fluoroethyl)-[1,4]diazepane] | < 1000 nM | 

Next, values leading:

IC50 | inhibition at 10 µM | Structure (SMILES)
< 1000 nM |  | CS(=O)(=O)c1ccc(O[C@H]2c3cc(Cl)cc(Cl)c3C[C@@H]2N2CCCC(NCCO)C2)cc1 (stereo partly drawn) [Example 379, 2-{(R)-1-[trans-(1S,2S)-4,6-dichloro-1-(4-methanesulfonylphenoxy)indan-2-yl]piperidin-3-ylamino}-ethanol]
 | 20 to 50% | NC(=O)c1cccc(O[C@H]2c3ccccc3CC[C@@H]2N2CCC[C@H](N)C2)c1 (racemic) [Example 412, 3-[rac-trans-(1,2)-2-((S)-3-aminopiperidin-1-yl)-1,2,3,4-tetrahydronaphthalen-1-yloxy]benzamide]
 | 20 to 50% | Nc1ccc2c(O[C@H]3c4ccccc4CC[C@@H]3N3CCOCC3)cccc2c1 (racemic) [Example 569, 5-(rac-trans-(1,2)-2-morpholin-4-yl-1,2,3,4-tetrahydronaphthalen-1-yloxy)naphthalen-2-ylamine]
< 1000 nM |  | CC(=O)Nc1cccc(O[C@@H]2c3cc(Cl)cc(F)c3C[C@H]2N2CCC[C@@H](N)C2)c1 (racemic) [Example 678, N-{3-[rac-trans-(1,2)-2-((R)-3-aminopiperidin-1-yl)-6-chloro-4-fluoroindan-1-yloxy]phenyl}acetamide]
 | 20 to 50% | N#Cc1c(F)cccc1O[C@H]1c2ccccc2CC[C@@H]1N1CCC[C@@H](N)C1 (racemic) [Example 367, 2-[rac-trans-(1,2)-2-((R)-3-aminopiperidin-1-yl)-1,2,3,4-tetrahydronaphthalen-1-yloxy]-6-fluorobenzonitrile]
1000 to 10000 nM |  | CN(C1CCC1)[C@@H]1Cc2ccccc2[C@H]1Oc1ccc(S(C)(=O)=O)cc1 (racemic) [Example 734, Cyclobutyl-[rac-trans-(1,2)-1-(4-methanesulfonyl-phenoxy)-indan-2-yl]-methyl-amine]
< 1000 nM |  | Cc1nnc(C)n1-c1ccc(O[C@H]2c3cc(Cl)cc(Cl)c3C[C@@H]2N2CCCN(C)CC2)c(Cl)c1 [Example 345, 1-{trans-(1S,2S)-4,6-dichloro-1-[2-chloro-4-(3,5-dimethyl-[1,2,4]triazol-4-yl)phenoxy]indan-2-yl}-4-methyl-[1,4]diazepane]
< 1000 nM |  | Cn1ccn(-c2ccc(F)c(O[C@H]3c4cc(Cl)cc(Cl)c4C[C@@H]3N3CC[C@@H](O)C3)c2)c1=O [Example 313, 1-{3-[(1S,2S)-4,6-dichloro-2-((R)-3-hydroxypyrrolidin-1-yl)indan-1-yloxy]-4-fluorophenyl}-3-methyl-1,3-dihydroimidazol-2-one]
< 1000 nM |  | Cc1nnc(C)n1-c1ccc(O[C@H]2c3cc(Cl)cc(Cl)c3C[C@@H]2N2CCOCC2)c(F)c1 [Example 564, 4-{trans-(1S,2S)-4,6-dichloro-1-[4-(3,5-dimethyl-[1,2,4]triazol-4-yl)-2-fluorophenoxy]indan-2-yl}morpholine]
1000 to 10000 nM |  | NCC1CCN([C@@H]2Cc3ccccc3[C@H]2Oc2ccc3[nH]cc(CC(N)=O)c3c2)C1 (mixture of isomers) [Example 386, 2-{5-[rac-trans-(1,2)-2-(3-aminomethylpyrrolidin-1-yl)indan-1-yloxy]-1H-indol-3-yl}acetamide]
< 1000 nM |  | CC(=O)Nc1cccc(O[C@H]2c3cc(Cl)cc(Cl)c3C[C@@H]2N2CCC[C@@H](N)C2)c1 [Example 690, N-{3-[trans-(1S,2S)-2-((R)-3-aminopiperidin-1-yl)-4,6-dichloroindan-1-yloxy]phenyl}acetamide]
1000 to 10000 nM |  | Cc1c(Cl)cccc1O[C@@H]1c2ccccc2C[C@H]1N1CCC(CN)C1 (mixture of isomers) [Example 611, C-{1-[rac-trans-(1,2)-1-(3-chloro-2-methylphenoxy)indan-2-yl]pyrrolidin-3-yl}methylamine]
1000 to 10000 nM |  | CCN(CC)[C@@H]1Cc2ccccc2[C@H]1Oc1cccc(NC(C)=O)c1 (racemic) [Example 637, N-[3-(rac-trans-(1,2)-2-diethylaminoindan-1-yloxy)phenyl]acetamide]
1000 to 10000 nM |  | CCc1nc(C)cn1-c1ccc(F)c(O[C@H]2c3cc(Cl)cc(Cl)c3C[C@@H]2N2CC[C@@H](O)C2)c1 [Example 725, (R)-1-{trans-(1S,2S)-4,6-Dichloro-1-[5-(2-ethyl-4-methyl-imidazol-1-yl)-2-fluoro-phenoxy]-indan-2-yl}-pyrrolidin-3-ol]
1000 to 10000 nM |  | N#Cc1csc(-c2ccc(O[C@@H]3c4ccccc4C[C@H]3N3CCC[C@@H](N)C3)cc2)n1 (racemic) [Example 381, 2-{4-[rac-trans-(1,2)-2-((R)-3-aminopiperidin-1-yl)indan-1-yloxy]phenyl}thiazole-4-carbonitrile]
1000 to 10000 nM |  | CC1(C)NC(=O)N(c2ccc(F)c(O[C@H]3c4cc(Cl)cc(F)c4C[C@@H]3N3CC[C@@H](O)C3)c2)C1=O [Example 420, 3-{3-[(1S,2S)-6-chloro-4-fluoro-2-((R)-3-hydroxypyrrolidin-1-yl)indan-1-yloxy]-4-fluorophenyl}-5,5-dimethylimidazolidine-2,4-dione]
 | 20 to 50% | Cc1nnc(C)n1-c1cccc(O[C@H]2c3ccccc3C[C@@H]2N2CCCC2)c1 (racemic) [Example 404, 3,5-dimethyl-4-[3-(rac-trans-(1,2)-2-pyrrolidin-1-ylindan-1-yloxy)phenyl]-4H-[1,2,4]triazole]
1000 to 10000 nM |  | N#Cc1ccc(O[C@H]2c3ccccc3CC[C@@H]2N2CCC[C@@H](N)C2)c(F)c1F (racemic) [Example 509, 4-[rac-trans-(1,2)-2-((R)-3-aminopiperidin-1-yl)-1,2,3,4-tetrahydronaphthalen-1-yloxy]-2,3-difluorobenzonitrile]
